Assays:
[1] = in N,N-dimethylformamide, 0.1 molar TBA PF6, versus Ag/0.01M AgNO3 reference electrode, peak current, first scan, 100 mV/sec
Method: The oxidation potential can be determined using cyclic voltammetry. As described herein, the oxidation potential is measured by dissolving the compound of interest in a non-aqueous solvent (i.e., N,N-dimethylformamide) containing a supporting electrolyte (i.e., 0.1 moles/liter tetrabutylammonium hexafluorophosphate). The resulting solution is purged with an inert gas such as argon. A three-electrode configuration is used that includes a working electrode (i.e., a glassy carbon electrode), a reference electrode (i.e., a silver wire in a 0.01 moles/liter of silver nitrate dissolved in acetonitrile), and a counter electrode (i.e., a platinum wire). The oxidation or reduction potential is the voltage corresponding to the maximum current for the oxidation reaction.
The scan rates were 100 mV/sec.
The electrochemical measurements were made using a three-electrode configuration: a reference electrode, a working electrode, and a counter electrode. The reference electrode was a fritted electrode (obtained from Sargent Welch, Buffalo Grove, Ill.) that was filled with 0.01M AgNO3 in acetonitrile and fitted with a silver wire 1 mm in diameter by approximately 19 cm in length. The counter electrode was a platinum wire 1.0 mm in diameter and approximately 16 cm long (overall length) formed into a coil having a coil diameter of approximately 10 mm and a coil length of about 7.5 cm. The working electrode was a glassy carbon electrode, approximately 3.5 mm in diameter (obtained from BAS, Inc., West Lafayette, Ind.). The glassy carbon electrode was polished using first a 3.0 micron aluminum oxide powder/deionized water slurry, then a 0.3 micron alpha alumina powder/deionized water slurry. The polishing powders were obtained from Buehler LTD, Evanston, Ill.
The cell was a 50 mL four neck round bottom flask. Each electrode was sealed in the flask using the appropriately sized rubber septum. The fourth inlet was used to introduce an argon purge to remove oxygen and keep atmospheric moisture out of the cell.
The supporting electrolyte was tetrabutylammonium hexafluorophosphate (TBA PF6) (obtained from Southwestern Analytical Chemicals, Inc., Austin, Tex.). The TBA PF6 was dried overnight in a vacuum oven at 80-90° C. before each experiment. The solvent was N,N-dimethylformamide (DMF), and it was used as received without further purification. The solvent was transferred to the electrochemical cell via syringe under an argon atmosphere to minimize atmospheric moisture uptake.
Electrochemical measurements were made by first preparing a 0.1 molar solution of TBA PF6 in DMF. […] The potential was determined at the peak current for the oxidation or reduction reaction on the first scan.

[2] = time to oxidize 50 weight percent of the compound at room temperature; solutions in acetonitrile-d3; pseudo-first order kinetics
Method: The oxidative stability of the exemplary substituted arylsulfinates was determined by proton nuclear magnetic resonance spectroscopy. Spectra of solutions of the compounds in acetonitrile-d3 were obtained at regular intervals. The resonances of the alkyl groups in the cations were used as an internal standard to assess the oxidation of the anion.

| Substance | Eox [1] | t1/2 [2] |
| --- | --- | --- |
| tetrabutylammonium 4-chlorobenzenesulfinate [Example 1] | 0.09 V |  |
| tetrabutylammonium 4-cyanobenzenesulfinate [Example 4] | 0.15 V | >300 days |
| tetrabutylammonium 4-ethoxycarbonylbenzenesulfinate [Example 2] | 0.11 V |  |
| tetrabutylammonium 4-trifluoromethylbenzenesulfinate [Example 3] | 0.18 V |  |

— patent US7732633B2, “Arylsulfinate salts in photoinitiator systems for polymerization reactions” (3M Innovative Properties Company, priority 2003, dated 2010)
